Measurements as given in publication PMC6264190, “Interaction of α-Melanocortin and Its Pentapeptide Antisense LVKAT: Effects on Hepatoprotection in Male CBA Mice” (Molecules, 2011).
“Also recorded” adds a separate entry of the source.

Columns and labels:
antibody to L-α-MSH = conditions: ref [15],[16]; cited from earlier work
LVKAT = experiment: Tryptophan fluorescence spectrofluorometric titration of sense peptides with antisense peptide LVKAT; assay type: binding
Experimental: Tryptophan fluorescence was used to detect binding of antisense pentapeptide LVKAT to the central binding region of α-MSH molecule. […] One was attributed to α-MSH and the other to its complex with antisense pentapeptide LVKAT. […] Consequently, the proposed model is given by Equation (1) and Equation (2), where Kd is the dissociation constant of the complex: […]
SENSE - LVKAT ⇄ SENSE + LVKAT(1)
Figure 2 A typical titration of 2.5 µM solution of α-MSH (sense) with LVKAT (antisense) at 25 °C, pH = 7.4, 10 mM phosphate buffer. The concentration of LVKAT was varied from 50 to 750 μM. Fluorescence units (f.u.) are given as a ratio of signals obtained from sample and reference PMTs. Inset: Fitting curve at 360 nm according to the Equation (1) and Equation (2).
Figure 3 A typical titration of 25 µM solution of EHFRW (sense) with LVKAT (antisense) at 25 °C, pH = 7.4, 10 mM phosphate buffer. The concentration of LVKAT was varied from 50 to 500 µM. Fluorescence units (f.u.) are given as a ratio of signals obtained from sample and reference PMTs. Inset: Fitting curve at 360 nm according to the Equation (1) and Equation (2).
Fluorescence spectra were measured at 25 °C by OLIS RSM 1000F spectrofluorimeter (Olis, Bogart, GA, USA) equipped with thermostatted cell holder. […] Data obtained from the titrations were analyzed with the Specfit software package.

[1] = tested on: acetaminophen (APAP)-induced liver lesions in male CBA mice; experiment: Histopathological grading of acetaminophen (APAP)-induced liver lesions; assay type: in vivo; conditions: mean ± SD; acetaminophen 150 mg/kg i.g.; α-MSH 2.5 mg/kg, LVKAT 0.8 mg/kg or their equimolar mixture i.p. 1 hour before; scored at 24 hours; 0 = no lesions, 5 = severe; group size 6-8; untreated controls 4.8 ± 0.46; α-MSH p < 0.05, LVKAT and mixture p > 0.05 vs controls
Experimental: (§1) Experimental animals were male CBA mice, 12-16 weeks old, weighing 20-25 g and bred at the Ruđer Bošković Institute. Experiments were performed according to the ILAR Guide for the Care and Use of Laboratory Animals, Council Directive 86/609/EEC, and Croatian Animal Protection Act (Official Gazette 135/06). The animals were kept in a room with dark-light cycle (12h/12h) and constant temperature (22 ± 1 °C). Hepatotoxicity was induced according to the slightly modified procedure of Guarner et al.. To induce hepatic drug-metabolizing enzymes mice were given 0.3 g/L phenobarbitone-sodium (Kemika, Zagreb, Croatia) for 7 days. […] (Krka, Novo Mesto, Slovenia) 150 mg/kg was given intragastrically (i.g.), via a gastric tube, in a volume of 0.5 mL. […] Control animals were treated with saline (0.9% NaCl). The size of experimental groups was 6-8. Mice that spontaneously died were excluded from histopathological or biochemical analysis. […] However, the difference was not statistically significant.
(§2) Sections of the liver were fixed in 10% phosphate buffered formalin, embedded in paraffin, sectioned at 4 µm, and stained with hematoxilin and eosin. […] Alanine aminotransferase (ALT) and aspartate aminotransferase (AST) activity was determined from plasma by standard laboratory techniques. […]

[2] = tested on: hepatoprotective effects of α-MSH on the APAP induced hepatic lesions; experiment: Modulation of α-MSH hepatoprotection by antisense peptide in vivo (overall); set-up: species or system male CBA mice
Experimental: as §1, §2

[3] = tested on: acetaminophen induced hepatotoxicity; conditions: mouse model of acetaminophen induced hepatotoxicity; ref [15],[16]; cited from earlier work
From the text: Alpha-melanotropin (α-MSH) is an ancient, evolutionally conserved, tridecapeptide derived by the proteolytic cleavage from the pro-opiomelanocortin (POMC) hormone. It is currently the most widely studied melanocortin peptide in the context of tissue inflammation and cytoprotection. Recently, Turčić et al. […] Turčić et al. […] Sections of the liver were fixed in 10% phosphate buffered formalin, embedded in paraffin, sectioned at 4 µm, and stained with hematoxilin and eosin. Sections were examined by using light microscope, and grading of the liver lesions was done on 0-5 point scale according to Silva et al. (0 = no lesions, 1 = minimal, 2 = mild, 3 = moderate, 4 = marked and 5 = severe lesions). Alanine aminotransferase (ALT) and aspartate aminotransferase (AST) activity was determined from plasma by standard laboratory techniques. Plasma was sep ...

male CBA mice = experiment: Spontaneous deaths in the acetaminophen hepatotoxicity model; assay type: in vivo; conditions: starting number eight per group; acetaminophen 150 mg/kg i.g.; α-MSH 2.5 mg/kg, LVKAT 0.8 mg/kg or equimolar mixture i.p.; none died in control; difference not statistically significant
Experimental: as §1

[4] = tested on: acetaminophen-induced hepatotoxicity in male CBA mice; experiment: Plasma alanine aminotransferase (ALT) activity 24 h after acetaminophen administration; assay type: in vivo; conditions: mean ± SD; 24 h after acetaminophen 150 mg/kg i.g.; α-MSH 2.5 mg/kg, LVKAT 0.8 mg/kg or their equimolar mixture i.p. 1 hour before; group size 6-8; untreated controls 10087 ± 9595; α-MSH significantly lower, LVKAT and mixture p > 0.05; normal animals 37.7 ± 7.7
Experimental: as §1, §2

[5] = tested on: acetaminophen-induced hepatotoxicity in male CBA mice; experiment: Plasma aspartate aminotransferase (AST) activity 24 h after acetaminophen administration; assay type: in vivo; conditions: mean ± SD; 24 h after acetaminophen 150 mg/kg i.g.; α-MSH 2.5 mg/kg, LVKAT 0.8 mg/kg or their equimolar mixture i.p. 1 hour before; group size 6-8; untreated controls 6091 ± 4275; α-MSH significantly lower, LVKAT and mixture p > 0.05; normal animals 109.3 ± 25.3
Experimental: as §1, §2

## Ac-SYSMEHFRWGKPV-NH2 [D-α-MSH, D-enantiomer of α-MSH]
Antibody to L-α-MSH
  binding to antibody to L-α-MSH: does not bind antibody to L-α-MSH
LVKAT; same experimental conditions as for α-MSH (25 °C, pH = 7.4, 10 mM phosphate buffer)
  binding to LVKAT in fluorescence titration (in words): very weak (if any) binding

## LVKAT [pentapeptide antisense to central region of α-MSH that serves as the pharmacophore for melanocortin receptors]
[1]
  liver lesion score (scale 0-5): 5 ± 0
[2]; LVKAT 0.8 mg/kg i.p. 1 hour before acetaminophen 150 mg/kg i.g., p > 0.05 vs untreated controls
  effect of LVKAT alone (hepatoprotection, in words): not hepatoprotective per se
[2]; LVKAT given with α-MSH (equimolar) i.p. 1 hour before acetaminophen 150 mg/kg i.g., histopathology, ALT and AST
  effect on hepatoprotection by α-MSH (in words): abolishes hepatoprotective effects of α-MSH

## Ac-SYSMEHFRWGKPV-NH2 [α-MSH, tridecapeptide derived by the proteolytic cleavage from the pro-opiomelanocortin (POMC) hormone]
[1]
  liver lesion score (scale 0-5): 2 ± 0.75
[3]
  hepatoprotective effect (in words): strong and dose dependent hepatoprotective effects; also recorded: potent hepatoprotective effects
LVKAT; SVD analysis of fluorescence titration spectra, Specfit, no higher order complexes
  stoichiometry of complex with LVKAT: 1 to 1 complex formation
Male CBA mice
  animals that died spontaneously: none of the animals died
[4]
  blood (plasma) alanine aminotransferase (ALT): 585.8 ± 1424 U/L
[5]
  blood (plasma) aspartate aminotransferase (AST): 539.5 ± 459.6 U/L
